Here are results for 14 molecules from publication PMC6025042, “HSQC-TOCSY Fingerprinting-Directed Discovery of Antiplasmodial Polyketides from the Marine Ascidian-Derived Streptomyces sp. (USC-16018)” (Marine Drugs, 2018).

As usually defined, the inhibition is the relative decrease from the control value, in per cent. The IC50 is the concentration that inhibits the measured activity by half. As usually defined, the % Inhibition is the change of the read-out against control, counted positive when it falls.

Read-outs that look alike come from different tables or passages of the source. Some results are limits rather than exact numbers.

For one data set, the system named is Plasmodium yoelii. Conditions: cited from earlier work; for doses needed to clear the animals from the parasites: P. yoelii infected mice.
The subject of a further data set is P. falciparum Dd2. Briefly: antiplasmodial imaging assay, P. falciparum Dd2. The format is cell-based, Plasmodium falciparum. Conditions: for inhibition at 40 µM / % Inhibition at 40 µM, P. falciparum Dd2: chloroquine- and pyrimethamine-resistant strain; for IC50: read-out: IC50, P. falciparum Dd2. The protocol: (§1) The parasites were subjected to two rounds of sorbitol synchronization before undergoing compound treatment. The ring stage parasites were exposed to the experimental compounds in 384-wells imaging microplates (PerkinElmer CellCarrier, Waltham, MA, USA), as previously described in Reference. The plates were incubated for 72h at 37 °C, 90% N2, 5% CO2, 5% O2, then the parasites were stained with 2-(4-amidinophenyl)-1H–indole-6-carboxamidine (DAPI), and imaged using an Opera QEHS micro-plate confocal imaging system (PerkinElmer, Waltham, MA, USA). The images were analysed as previously described in Reference.
(§2) The raw data were normalized using the in-plate positive and negative controls to obtain the normalized % inhibition data, which was then used to calculate the IC50 values through a 4-parameter logistic curve fitting in the GraphPad Prism (Version 6.0, La Jolla, CA, USA). The experiments were carried out in two independent biological replicates, each consisting of two technical replicates.

The test system of the next data set is P. falciparum 3D7. The experiment in a line: antiplasmodial imaging assay, P. falciparum 3D7. Type of data set: cell-based, Plasmodium falciparum. The conditions noted are these: for inhibition at 40 µM / % Inhibition at 40 µM, P. falciparum 3D7: chloroquine sensitive strain; for IC50: read-out: IC50, P. falciparum 3D7. Here is the method: as §1, §2
The test system of the next data set is HEK-293 Cells. Briefly: cells. Type of data set: cell-based. Conditions: for inhibition at 40 µM: read-out: % Inhibition at 40 µM, HEK-293 Cells; for IC50: value in brackets. Here is the method:
Human Embryonic Kidney cells (HEK293) were maintained in the Dulbecco’s Modified Eagle Medium (DMEM) medium supplemented with 10% FBS. The HEK293 cells were exposed to the compounds in TC-treated 384-wells plates (Falcon, Durham, NC, USA). […] After an additional 5–6 h incubation at standard conditions, the total fluorescence (excitation/emission: 530 nm/595 nm) was measured using the Envision plate reader (PerkinElmer, Waltham, MA, USA).
as §2

Data set [1] deals with chloroquine-sensitive and chloroquine-resistant Plasmodium falciparum strains. Further details: method as in PMID 14514358. Conditions: chloroquine-sensitive and chloroquine-resistant strains equally; read-out: IC50, growth of P. falciparum; cited from earlier work.
On the set-up of data set [2]: method as in PMID 21454186. The conditions noted are these: cited from earlier work.
The subject of a further data set is K1 strain. Further details: method as in PMID 27554496. Conditions: read-out: IC50 against the K1 strain; cited from earlier work.
[3] abbreviates: Plasmodium falciparum, DD2, 40 µM, 72 h, read-out: % Inhibition at 40 µM, P. falciparum Dd2.
Setting [4] is: Plasmodium falciparum, DD2, 72 h, value in brackets.
[5] abbreviates: Plasmodium falciparum, 3D7, 40 µM, 72 h, read-out: % Inhibition at 40 µM, P. falciparum 3D7.
[6] abbreviates: Plasmodium falciparum, 3D7, 72 h, value in brackets.
The mark [7] stands for this setting: Homo sapiens, HEK293, 40 µM, 72 h.
Setting [8] is: Plasmodium falciparum, DD2, 72 h, read-out: % Inhibition at 40 µM, P. falciparum Dd2, 40 µM, 72 h.
[9] abbreviates: Plasmodium falciparum, 3D7, 72 h, read-out: % Inhibition at 40 µM, P. falciparum 3D7, 40 µM, 72 h.
[10] abbreviates: 40 µM, 72 h, listed as Herbimycin G (1).
[11] abbreviates: 40 µM, 72 h, listed as Elaiophylin (2).
Setting [12] is: 72 h, value in brackets, listed as Elaiophylin (2).

In the case of `C=CCNC1=C2C[C@@H](C)C[C@H](OC)[C@H](O)[C@@H](C)/C=C(\C)[C@H](OC(N)=O)[C@@H](OC)/C=C\C=C(/C)C(=O)NC(=CC1=O)C2=O` [17-AAG, 17-N-allylamino-17-demethoxygeldanamycin], the “doses needed to clear the animals from the parasites” value in the data set on Plasmodium yoelii was “a second dose of 17-AAG was needed”. Further, the “efficacy against Plasmodium yoelii in mouse models” value in the data set with Plasmodium yoelii (intra-peritoneal, doses of 7.2 mg/kg) was “effective against Plasmodium yoelii in mouse models”. For the same molecule, the “time to complete clearance of parasitemia after reinfection” value with Plasmodium yoelii (treated mice reinfected with P. yoelii) is reported as 9 days.

As to `C[C@H]1[C@H](OC(=O)CCC(=O)O)O[C@@H]2O[C@@]3(C)CC[C@H]4[C@H](C)CC[C@@H]1[C@@]24OO3` [Artesunate], the inhibition at 40 µM was 98.4% in the data set on P. falciparum Dd2 (setting [3]), 99.6% in the data set on P. falciparum 3D7 (setting [5]) and 50.6% in the data set with HEK-293 Cells (setting [7]). Also, the half-inhibitory concentration (IC50) is 1.3 nM with P. falciparum Dd2 (setting [4]) and 0.9 nM in the data set with P. falciparum 3D7 (setting [6]).

Turning to `CCN(CC)CCCC(C)Nc1ccnc2cc(Cl)ccc12` (stereo not shown) [Chloroquine], the inhibition at 40 µM with P. falciparum Dd2 (setting [8]) is 96.5%; in the data set with P. falciparum 3D7 (setting [9]) it was 98.8%; in the data set on HEK-293 Cells (Homo sapiens, HEK293, 72 h) it was 40.9%. The IC50 in the data set on P. falciparum Dd2 (Plasmodium falciparum, DD2, 72 h) was 87.9 nM; in the data set on P. falciparum 3D7 (Plasmodium falciparum, 3D7, 72 h) it was 10 nM. In addition, the “doses needed to clear the animals from the parasites” value in the data set with Plasmodium yoelii is recorded as “a single dose of chloroquine was sufficient to fully clear the animals from the parasites”.

For the molecule `C[C@H]1[C@@H](O)O[C@@H]2O[C@@]3(C)CC[C@H]4[C@H](C)CC[C@@H]1[C@@]24OO3` [Dihydroartemisinin], the inhibition at 40 µM stood at 98% with P. falciparum Dd2 (setting [3]), 99.9% with P. falciparum 3D7 (setting [5]) and 37.9% in the data set with HEK-293 Cells (setting [7]). In addition, the half-maximal inhibitory concentration (IC50) in the data set on P. falciparum Dd2 (setting [4]) turned out to be 0.6 nM; with P. falciparum 3D7 (setting [6]), 0.4 nM.

With `COC1=C2C[C@@H](C)C[C@H](OC)[C@H](O)[C@@H](C)/C=C(\C)[C@H](OC(N)=O)[C@@H](OC)/C=C\C=C(/C)C(=O)NC(=CC1=O)C2=O` [Geld, geldanamycin], the IC50 in data set [1] was 20 nM. Further, in data set [2], the “water solubility (in words)” value is “low water solubility”.

Turning to `COc1ccc(C[C@H](N)C(=O)N[C@H]2[C@@H](O)[C@H](n3cnc4c(N(C)C)ncnc43)O[C@@H]2CO)cc1` [Puromycin], the inhibition at 40 µM in the data set on P. falciparum Dd2 (setting [3]) is 99.1%; with P. falciparum 3D7 (setting [5]), 99%; in the data set on HEK-293 Cells (setting [7]), 103%. In addition, the IC50 is 114 nM in the data set with P. falciparum Dd2 (setting [4]); 149 nM with P. falciparum 3D7 (setting [6]); 1410 nM in the data set with HEK-293 Cells (Homo sapiens, HEK293, 72 h).

On to `CCc1nc(N)nc(N)c1-c1ccc(Cl)cc1` [Pyrimethamine], for which the results for the inhibition at 40 µM in the data set on P. falciparum Dd2 (setting [3]), in the data set on P. falciparum 3D7 (setting [5]) and with HEK-293 Cells (setting [7]) were 23.2%, 98.7% and 68.4%, respectively. Moreover, the IC50 in the data set on P. falciparum 3D7 (setting [6]) turned out to be 4.7 nM.

On to `COc1ccc2nc3cc(Cl)ccc3c(Nc3cc(CN4CCCC4)c(O)c(CN4CCCC4)c3)c2n1` [Pyronaridine], for which the inhibition at 40 µM in the data set on P. falciparum Dd2 (setting [3]) was 97.8%; in the data set with P. falciparum 3D7 (setting [5]), 99.9%; in the data set on HEK-293 Cells (setting [7]) it was 98.7%. Further, the IC50 in the data set on P. falciparum Dd2 (setting [4]) worked out at 8.3 nM; in the data set with P. falciparum 3D7 (setting [6]), 7.4 nM; with HEK-293 Cells (Homo sapiens, HEK293, 72 h) it was 2830 nM.

As to `CO[C@H]1[C@@H](OC)C[C@H](C)[C@@H](OC)C2=C[C@@H](O)C[C@@H](NC(=O)/C(C)=C/C=C\[C@H](OC)[C@@H](OC(N)=O)/C(C)=C/[C@@H]1C)C2=O` [compound 1, herbimycin G], in the data set on P. falciparum Dd2 (setting [10]), the “% Inhibition at 40 µM, P. falciparum Dd2” value turned out to be 81.7%. Further, the values for the inhibition at 40 µM in the data set on P. falciparum Dd2 (setting [8]) and in the data set with P. falciparum 3D7 (setting [9]) were over 75% and 77%, respectively. Further, the “% Inhibition at 40 µM, P. falciparum 3D7” value in the data set with P. falciparum 3D7 (40 µM, 72 h) is reported as over 75%; with P. falciparum 3D7 (setting [10]), 77.2%. Moreover, the “antiplasmodial activity (in words)” value in the data set with P. falciparum 3D7 (3D7 and Dd2 strains) was “weak antiplasmodial activity”. Also, the “% Inhibition at 40 µM, HEK-293 Cells” value in the data set with HEK-293 Cells (40 µM, 72 h) was “no effect”. For the same molecule, the “cytotoxicity (in words)” value in the data set with HEK-293 Cells (HEK293) is “no cytotoxicity”.

Regarding `CC(C)C[C@@H]1NC(=O)[C@@H]2CCCN2C1=O` [compound 3, Cyclo-L-Pro-L-Leu], the figures for the inhibition at 40 µM in the data set on P. falciparum Dd2 (setting [3]) and in the data set on P. falciparum 3D7 (setting [5]) were 39% and 45.9%, respectively. In addition, the “% Inhibition at 40 µM, HEK-293 Cells” value in the data set on HEK-293 Cells (40 µM, 72 h) is listed as “no effect”.

Consider `O=C1N[C@@H](Cc2ccccc2)C(=O)N2CCC[C@@H]12` [compound 4, Cyclo-L-Pro-L-Phe], for which the “% Inhibition at 40 µM, P. falciparum Dd2” value in the data set with P. falciparum Dd2 (40 µM, 72 h) is “no effect”. Besides, in the data set with P. falciparum 3D7 (40 µM, 72 h), the “% Inhibition at 40 µM, P. falciparum 3D7” value is recorded as “no effect”. Further, the “% Inhibition at 40 µM, HEK-293 Cells” value with HEK-293 Cells (40 µM, 72 h) was “no effect”.

In the case of `CC(C)[C@@H]1NC(=O)[C@@H]2CCCN2C1=O` [compound 5, Cyclo-L-Pro-L-Val], the “% Inhibition at 40 µM, P. falciparum Dd2” value in the data set on P. falciparum Dd2 (40 µM, 72 h) was “no effect”. In the data set on P. falciparum 3D7 (40 µM, 72 h), the “% Inhibition at 40 µM, P. falciparum 3D7” value is reported as “no effect”. The “% Inhibition at 40 µM, HEK-293 Cells” value with HEK-293 Cells (40 µM, 72 h) is listed as “no effect”.

As for `O=C1N[C@@H](Cc2ccc(O)cc2)C(=O)N2CCC[C@@H]12` [compound 6, Cyclo-L-Pro-L-Tyr], in the data set on P. falciparum Dd2 (40 µM, 72 h), the “% Inhibition at 40 µM, P. falciparum Dd2” value is given as “no effect”. For the same molecule, the “% Inhibition at 40 µM, P. falciparum 3D7” value with P. falciparum 3D7 (40 µM, 72 h) is reported as “no effect”. The “% Inhibition at 40 µM, HEK-293 Cells” value in the data set with HEK-293 Cells (40 µM, 72 h) was “no effect”.

With elaiophylin [compound 2], the “% Inhibition at 40 µM, P. falciparum Dd2” value in the data set on P. falciparum Dd2 (40 µM, 72 h) is on record as over 75%; with P. falciparum Dd2 (setting [11]), 86.1%. Moreover, the IC50 in the data set on P. falciparum Dd2 (setting [12]) is 598 nM; in the data set with P. falciparum 3D7 (setting [12]), 778 nM; in the data set with K1 strain it was 214 nM; in the data set with HEK-293 Cells (72 h), 1440 nM. In addition, the “% Inhibition at 40 µM, P. falciparum 3D7” value with P. falciparum 3D7 (40 µM, 72 h) is over 75%; with P. falciparum 3D7 (setting [11]), 96.6%. Besides, the “% Inhibition at 40 µM, HEK-293 Cells” value with HEK-293 Cells (40 µM, 72 h) was determined as 101.9%. Besides, the “cytotoxicity (in words)” value in the data set with HEK-293 Cells (HEK293) is listed as “highly cytotoxic”.
